Assay results reported in PMC6083370, “Influence of OATPs on Hepatic Disposition of Erlotinib Measured With Positron Emission Tomography” (Clinical Pharmacology and Therapeutics, 2017).

Experiments:
[1] = biological target: T1, OATP2B1 (SLCO2B1) (Homo sapiens, UniProt O94956)
T1 sequence (O94956 1-709): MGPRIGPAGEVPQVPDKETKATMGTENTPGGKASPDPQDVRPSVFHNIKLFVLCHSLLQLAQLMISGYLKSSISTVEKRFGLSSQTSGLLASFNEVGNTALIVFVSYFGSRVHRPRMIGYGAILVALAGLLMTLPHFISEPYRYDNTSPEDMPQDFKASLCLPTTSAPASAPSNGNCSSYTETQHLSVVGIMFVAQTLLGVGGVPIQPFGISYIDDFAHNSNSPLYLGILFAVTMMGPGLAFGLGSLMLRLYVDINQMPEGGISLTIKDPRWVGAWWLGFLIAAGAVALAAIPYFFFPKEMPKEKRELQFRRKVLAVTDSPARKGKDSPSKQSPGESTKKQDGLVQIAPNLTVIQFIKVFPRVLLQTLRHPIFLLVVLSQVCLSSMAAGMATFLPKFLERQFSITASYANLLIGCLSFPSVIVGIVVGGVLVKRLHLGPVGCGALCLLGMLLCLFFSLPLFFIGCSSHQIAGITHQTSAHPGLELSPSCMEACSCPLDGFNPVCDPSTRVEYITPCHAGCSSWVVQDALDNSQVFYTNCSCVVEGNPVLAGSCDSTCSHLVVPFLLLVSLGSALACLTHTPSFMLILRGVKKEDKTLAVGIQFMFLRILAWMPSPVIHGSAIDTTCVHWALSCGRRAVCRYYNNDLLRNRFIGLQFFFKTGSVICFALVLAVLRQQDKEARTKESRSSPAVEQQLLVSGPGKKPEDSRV
Description: OATP overexpression was confirmed by Western blotting. Functionality of the OATPs was verified by [^3H]estrone-3-sulfate uptake experiments. A431 cells transfected with the empty vector were used as a negative control. All cell lines were cultured in Dulbecco's modified eagle medium supplemented with 10% fetal bovine serum, 2 mM L-glutamine, 100 units/mL penicillin and 100 µg/mL streptomycin. […] On the day of the experiment, growth medium was aspired and cells were washed with pre-warmed transport buffer (Hank's balanced salt solution supplemented with 10 mM N-2-hydroxyethylpiperazine-N-2-ethane sulfonic acid). […] Then the drug solutions were removed and cells were washed with pre-warmed transport buffer. […] For time dependency experiments, pre-warmed transport buffer was added and cells were incubated for 30 min. […] For concentration dependency experiments, pre-warmed transport buffer was added and cells were incubated for 30 min. […] In all experiments, cell count was determined on separate 24-well tissue culture plates before or after each experiment. In all experiments, radiotracer solutions were aspired following incubation and cells were washed twice with ice-cold transport buffer. […] Each inhibition experiment was performed 2 times with 3 technical replicates each and radioactivity in cells was corrected for radioactive decay, normalized to 10^6 cells and expressed as percent of vector control (% control). The time dependency experiment was performed once with 3 technical replicates and radioactivity in cells was corrected for radioactive decay and expressed as percent of applied dose per 10^6 cells (%AD/10^6 cells). The concentration dependency experiment was performed once with 3 technical replicates and radioactivity in cells was corrected for radioactive decay. Kinetic parameters were determined using a previously described method.^2 In brief, cellular radioactivity uptake was converted into units of pmol/min/10^6 cells. OATP2B1-specific uptake of erlotinib was determined by subtracting the uptake into cells transfected with the empty vector from the uptake into cells transfected with OATP2B1. The following equation was used to obtain kinetic parameters:
where v is the uptake velocity of erlotinib (pmol/min/10^6 cells), S is the erlotinib concentration in the transport buffer (µM), Km is the Michaelis constant (µM), Vmax is the maximum uptake velocity (pmol/min/10^6 cells), and Pdif is the non-saturable uptake clearance (µL/min/10^6 cells). Curve fitting was performed by the non-linear regression method with a modified Michaelis-Menten model according to equation 1 using Prism 6.0 software (GraphPad Software).

[2] = design: method as in PMID 23887590; conditions: following ritonavir pretreatment; cited from earlier work
[3] = test system: OATP2B1; design: method as in PMID 28005438; conditions: cited from earlier work
[4] = design: method as in PMID 27036206; conditions: combination of erlotinib with rosuvastatin, 24 patients; cited from earlier work

C#Cc1cccc(Nc2ncnc3cc(OCCOC)c(OCCO[11CH3])cc23)c1 [[^11C]erlotinib]
Michaelis constant (K m) of the saturable component of OATP2B1‐specific uptake ([1]; 7.5 min, erlotinib 0.05–2.05 μM, ± standard error): 0.324 ± 0.182 µM | incubation time at maximum difference in uptake between OATP2B1 cells and the other cells ([1]; <0.1 μM, time dependency experiment): 10 to 15 min

Cc1cc(C)c(NC(=O)CN(CC(=O)[O-])CC(=O)[O-])c(C)c1Br.Cc1cc(C)c(NC(=O)CN(CC(=O)[O-])CC(=O)[O-])c(C)c1Br.[99Tc+4] [[^99mTc]mebrofenin]
increase in the efflux clearance from liver to blood [2]: 517% | reduction in CL uptake [2]: 46%

COc1cc2ncnc(Nc3ccc(F)c(Cl)c3)c2cc1OCCCN1CCOCC1 [gefitinib]
transport by OATP2B1 [3]: transported

CO[C@H]1/C=C/O[C@@]2(C)Oc3c(C)c(O)c4c(O)c(c(/C=N/N5CCN(C)CC5)c(O)c4c3C2=O)NC(=O)/C(C)=C\C=C\[C@H](C)[C@H](O)[C@@H](C)[C@@H](O)[C@@H](C)[C@H](OC(C)=O)[C@@H]1C [rifampicin]
effect on [^11C]erlotinib uptake in OATP2B1 overexpressing cells ([1]; erlotinib 1 μM, cyclosporine A 10 μM, rifampicin 100 μM, 5 min): significantly decreased

CC(C)c1nc(N(C)S(C)(=O)=O)nc(-c2ccc(F)cc2)c1/C=C/[C@@H](O)C[C@@H](O)CC(=O)O [rosuvastatin]
rate of muscle toxicity [4]: 34%
